Literature values as cited in US10946075B1 (priority 2014, dated 2021).

Key:
[1] = in vivo
murine neuroblastoma = settings: mouse, in vivo
mice [2] = settings: mouse, in vivo, 16 mg/kg
[3] = in vivo; remark: listed apart in the source
dogs [4] = settings: dog, in vivo
thyroid gland = settings: rat, in vivo
humans = settings: human
dogs [5] = settings: dog, in vivo; remark: listed apart in the source
rat gamete = settings: in vivo
mice [6] = settings: mouse, in vivo
rats = settings: rat, in vivo

Q: With Vitamin E as the molecule, how does the white cell count [1] read?
A: Its white cell count is “doubled”.

Q: Which results are given for `O=C(O)CCCCC1CCSS1` (stereo not drawn) [Alpha lipoic acid, Alpha Lipoic Acid]?
A: survival rate (murine neuroblastoma): about 10%; number of surviving animals (mice [2]): doubled

Q: Which survival [3] does the source give for `CC1=C(/C=C/C(C)=C/C=C/C(C)=C/C=C/C=C(C)/C=C/C=C(C)/C=C/C2=C(C)CCCC2(C)C)C(C)(C)CCC1` [Beta Carotene] here?
A: Its survival is 80%.

Q: Which treated dogs survived (dogs [4]) does the source give for `O=C([O-])CC(O)(CC(=O)[O-])C(=O)[O-].[Na+].[Na+].[Na+]` [sodium citrate] here?
A: Its treated dogs survived is 100%.

Q: With `C[S+](C)[O-]` [DMSO, Dimethylsulfoxide] as the molecule, how does the “induction of micronuclei by bystander effect cells” value (bystander effect cells) read?
A: The value was “completely suppressed”.

Q: Which results are given for `NCCC[C@](N)(C(=O)O)C(F)F` [DFMO, alpha-difluoromethylornithine]?
A: radiation-induced cell death (cells): 50-60 % of control; putrescine and spermidine levels (polyamine biosynthesis): nondetectable levels; spermine decrease (polyamine biosynthesis): 50%

Q: Which “131I- excreted in urine” value (thyroid gland) does the source give for `[I-].[K+]` [KI, Potassium iodide] here?
A: The value was 30%.

Q: And the “approximate LD50 in humans” value (humans)?
A: The value was about 500 mg/kg.

Q: What does the source list for `O=C1O[C@H]([C@@H](O)CO)C(O)=C1O` [vitamin C, Ascorbic Acid]?
A: reduction of mortality rate (dogs [5]): 50%; increase of gamete survival vs. controls (factor) (rat gamete): 2.2; protection over control (hamster ovary cells): seven-fold

Q: With `Cc1cc2nc3c(=O)[nH]c(=O)nc-3n(C[C@H](O)[C@H](O)[C@H](O)CO)c2cc1C` [riboflavin] as the molecule, how does the “mortality and DNA damages” value (mice [6]) read?
A: The value was “higher mortality rates and more DNA damages”.

B1: papain (protein, UniProt P00784 134-345, looked up)
Papain: IPEYVDWRQKGAVTPVKNQGSCGSCWAFSAVVTIEGIIKIRTGNLNEYSEQELLDCDRRSYGCNGGYPWSALQLVAQYGIHYRNTYPYEGVQRYCRSREKGPYAAKTDGVRQVQPYNEGALLYSIANQPVSVVLEAAGKDFQLYRGGIFVGPCGNKVDHAVAAVGYGPNYILIKNSWGTGWGENGYIRIKRGTGNSYGVCGLYTSSFYPVKN
Q: For B1, which survival (rats) is on record?
A: Its survival is 50%.
